In patent publication US20240024302A1, “SOLUBLE EPOXIDE HYDROLASE (sEH) INHIBITORS AND DUAL COX/sEH INHIBITORS FOR THE TREATMENT OF ARRHYTHMOGENIC CARDIOMYOPATHY” (BETH ISRAEL DEACONESS MEDICAL CENTER, INC., priority 2020, published 2024):
Converted amounts (≈) assume the structure as drawn. “Also recorded” adds a separate entry of the source.

Tests used:
[1] = target: T1, soluble epoxide hydrolase (sEH) (Homo sapiens, UniProt P34913); experiment: Human in vitro Ki and dissociation t1/2 from the enzyme (fluorescence signals); type: binding; conditions: for Human In vitro t1/2 (time for half of the drug being dissociated from the enzyme): based on fluorescence signals
T1 sequence (P34913 1-555): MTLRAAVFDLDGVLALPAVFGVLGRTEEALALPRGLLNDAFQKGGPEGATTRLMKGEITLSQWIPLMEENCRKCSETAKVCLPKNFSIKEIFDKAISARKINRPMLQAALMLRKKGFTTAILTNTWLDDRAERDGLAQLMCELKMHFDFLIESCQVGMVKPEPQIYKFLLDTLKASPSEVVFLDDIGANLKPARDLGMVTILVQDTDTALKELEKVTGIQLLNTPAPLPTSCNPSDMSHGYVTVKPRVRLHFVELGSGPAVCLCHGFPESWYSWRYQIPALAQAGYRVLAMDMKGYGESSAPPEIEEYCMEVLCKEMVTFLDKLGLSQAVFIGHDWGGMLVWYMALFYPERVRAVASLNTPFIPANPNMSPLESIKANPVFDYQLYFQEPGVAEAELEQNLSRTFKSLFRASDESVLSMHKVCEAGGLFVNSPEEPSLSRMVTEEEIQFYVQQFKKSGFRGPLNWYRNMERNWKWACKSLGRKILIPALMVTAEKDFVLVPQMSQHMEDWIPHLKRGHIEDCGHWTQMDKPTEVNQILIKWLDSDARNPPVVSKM

[2] = Rat PK, single oral gavage; type: in vivo; conditions: single dose 0.1 mg/kg
[3] = Mouse PK, single oral gavage; conditions: mouse, in vivo, po, 0.3 mg/kg, single dose 0.3 mg/kg; for AUC: Mouse AUC, 20% PEG400 in oleic acid-rich triglyceride
Solubility in buffer = type: physicochemical; conditions: aqueous buffer; Sodium Phosphate Buffer at pH 7.4
Experimental LogP = type: physicochemical
[4] = system: Neonatal rat ventricular myocytes (NRVM) expressing 2157del2 JUP; experiment: Immunofluorescence of junction proteins in ACM in vitro model; type: cell-based; conditions: for Loss of cell surface signal for Cx43 / Redistribution of junctional plakoglobin to intracellular/nuclear sites: 500 nM 2.017 or 1 μM 1.045, 24 hours; for ACM disease features overall (plakoglobin, Cx43, pRelA/p65, TUNEL), sEH inhibitors: Jup2157del2 myocytes, 2.017 500 nM, 1.045 1 μM, concentration not given for 1,002 and 3.023
Protocol: Neonatal rat ventricular myocytes (NRVM) were isolated from the ventricles of 1-day-old Wistar rat pups and plated on collagen-coated plastic chambers. 24 hours following seeding, the cells were transfected with an adenoviral construct expressing a mutant form of plakoglobin known to cause arrhythmogenic cardiomyopathy in patients (2157del2 JUP). […] Non-transfected cultures and cultures transfected with the adenoviral construct only served as negative and positive controls, respectively.
(§1) Immunofluorescence: Cell cultures were fixed with 4% paraformaldehyde and prepared for immunofluorescence analysis as previously described (1). […] Cy3-conjugated goat anti-mouse and anti-rabbit antibodies (Jackson Immunolabs) were used as secondary antibodies and DAPI was used to visualize the nuclei. Immunostained preparations were visualized by confocal microscopy and changes in spatial distribution of signal were assessed qualitatively.

[5] = system: Neonatal rat ventricular myocytes (NRVM) expressing 2157del2 JUP; experiment: TUNEL apoptosis assay in ACM in vitro model; type: cell-based; conditions: 500 nM 2.017 or 1 μM 1.045, 24 hours
Protocol: (§2) Neonatal rat ventricular myocytes (NRVM) were isolated from the ventricles of 1-day-old Wistar rat pups and plated on collagen-coated plastic chambers. 24 hours following seeding, the cells were transfected with an adenoviral construct expressing a mutant form of plakoglobin known to cause arrhythmogenic cardiomyopathy in patients (2157del2 JUP). 24 hours following transfection, the cells were treated with 500 nM 2.017 or 1 μM 1.045 for an additional 24 hours. Non-transfected cultures and cultures transfected with the adenoviral construct only served as negative and positive controls, respectively.
Apoptosis assay: Terminal deoxynucleotidyl transferase dUTP nick end labelling (TUNEL) was performed on NRVM cultures following the manufacturer's instructions (Millipore, S7110). DNA strand breaks generated in apoptotic cells were labelled with fluorescein (green) and nuclei were visualized with DAPI. The number of TUNEL-positive nuclei was counted in 5 randomly selected high-power fields in each culture well and expressed as a percent of total nuclei visualized with DAPI.

NFκB = experiment: Nuclear pRelA/p65 immunofluorescence (NFκB activation) in ACM in vitro model; type: cell-based, rat; conditions: 500 nM 2.017 or 1 μM 1.045, 24 hours
Protocol: as §2, §1

Dsg2^mut/mut mice = experiment: LV function in Dsg2mut/mut mice; type: in vivo, mouse; conditions: 3 mg/kg/day for 20 days, vs. untreated mice

Human In vitro t1/2 (time for half of the drug being dissociated from the enzyme) [1] | AUC ([3]; oral gavage) | Exp. LogP (Experimental LogP) | Structure (SMILES) | Loss of cell surface signal for Cx43 [4] | Redistribution of junctional plakoglobin to intracellular/nuclear sites [4] | ACM disease features overall (plakoglobin, Cx43, pRelA/p65, TUNEL), sEH inhibitors [4] | Myocyte apoptosis (TUNEL+ nuclei) [5] | Activation of NFκB (nuclear signal for pRelA/p65) (NFκB) | further results
0.167 h | ≥ 0.0999 µM·h |  | CC[C@H](C)C(=O)N1CCC(NC(=O)Nc2ccc(OC(F)(F)F)c(Cl)c2)CC1 |  |  |  |  |  | Cmax ([2]; rat, in vivo): 42 ± 6 nM; Tmax ([2]; rat, in vivo): 2.1 ± 0.3 h; AUC ([2]; rat, in vivo, PEG 300): 0.241 ± 0.012 µM·h; half-life ([2]; rat, in vivo, read-out: Rat T1/2 (converted)): 2.9 ± 0.5 h
0.0783 h |  |  | CC[C@H](C)C(=O)N1CCC(CC(=O)Nc2ccc(OC(F)(F)F)cc2F)CC1 |  |  |  |  |  | solubility (Solubility in buffer): 2.6 µg/mL (≈ 6.43 µM); logP (Experimental LogP; read-out: Exp. LogP): 6; Ki [1]: 4.72 nM
 | 0.0998 ± 0.0001 µM·h | 5.98 | CC[C@H](C)C(=O)N1CCC(NC(=O)Nc2ccc(OC(F)(F)F)c(F)c2)CC1 [drawing 88] |  |  |  |  |  | Cmax [2]: 42 ± 6 nM; Rat T1/2 [2]: 1.6 ± 0.2 h; Rat Tmax [2]: 1.8 ± 0.1 h; Rat AUC ([2]; PEG 300): 0.208 ± 0.025 µM·h; Cmax ([3]; Mouse Cmax, oral gavage): 737 nM; half-life ([3]; Mouse T1/2, oral gavage): 117 h; Tmax ([3]; Mouse Tmax, oral gavage): 1.6 h
 |  |  | CCC(=O)N1CCC(NC(=O)Nc2ccc(OC(F)(F)F)cc2)CC1 [Compound 1.045] | reduced loss of cell surface signal for Cx43 | prevented redistribution of junctional plakoglobin; also recorded: prevented translocation of junctional plakoglobin | reversed | greatly diminished myocyte apoptosis | prevented activation of NFκB; also recorded: blocked activation of NFκB | LV function (Dsg2^mut/mut mice): marked recovery of LV function; also recorded: recovered LV function
 |  | 3.41 | O=C(Nc1ccc(C(F)(F)F)c(F)c1)NC1CCN(C(=O)[C@@H]2CCOC2)CC1 (stereo in doubt) |  |  |  |  |  | 
 |  |  | NS(=O)(=O)c1ccc(-n2nc(CCCNC(=O)Nc3ccc(C(F)(F)F)cc3)cc2-c2ccccc2)cc1 [Compound 2.017] | reduced loss of cell surface signal for Cx43 | prevented redistribution of junctional plakoglobin; also recorded: prevented translocation of junctional plakoglobin | reversed | greatly diminished myocyte apoptosis | prevented activation of NFκB; also recorded: blocked activation of NFκB | 
